Counter-ions that a name gives are not always drawn.
Key:
[1] = tested on: mice with essential tremor; assay: Rotating rod test in harmaline induced mouse model of essential tremor; assay type: in vivo, ICR male mice; conditions: for Residence Time on Rod, Time 0: 15 minutes after modeling with harmaline, immediately before administration; for Residence Time on Rod, Time 0 / Residence Time on Rod, 30 min / Residence Time on Rod, 60 min / Residence Time on Rod, 90 min / Residence Time on Rod, Pre-harmaline: mean ± SD; for Residence Time on Rod, 30 min: 30 min after time 0/administration; for Residence Time on Rod, 30 min / Residence Time on Rod, 60 min / Residence Time on Rod, 90 min: test groups 5 mg/kg·bw intraperitoneal, propranolol 2 mg/kg·bw gavage; for Residence Time on Rod, 60 min: 60 min after time 0/administration; for Residence Time on Rod, 90 min: 90 min after time 0/administration; for Ratio of area under the curve of each group to area under the curve of the model control group: area under the rod exercise ability recovery curve, model control group = 1, normal control group 6.47; for residence time on rod compared with model control group (in words): at each time point 30 min, 60 min, 90 min; for residence time on rod compared with model control group (in words) / recovery of exercise ability in the rotating rod test compared with model control (in words): p<0.05; for Residence Time on Rod, Pre-harmaline: baseline before harmaline and before administration, 10 mice per group, max 180 seconds; for recovery of exercise ability in the rotating rod test compared with model control (in words): from area under the curve, Table 2
From the text: Effect of Ginkgo biloba terpene lactone on the Mouse Model of Essential Tremor Induced by Harmaline
The following animals are used: 100 […] (ICR) male mice of SPF grade, weighted 18-22 g, purchased from Chengdu Dashuo Experimental Animal Co., Ltd., with the animal production license number of SCXK (Sichuan) 2015-030.
100 mice were randomly assigned to ear label number and randomly divided into 10 groups according to weight stratified random number method, with 10 mice in each group.
The groups are: normal control group, model control group, propranolol hydrochloride tablet control group, Ginkgo biloba leave extract injection solution control group, ginkgolide injection group, ginkgolide A group, ginkgolide B group, bilobalide group, ginkgolide B/bilobalide group (GB:BB=1:1 w/w) and ginkgolide A/B/C group (A:B:C=1:1:1 w/w/w).
The normal control group and the model control group were administrated 0.9% sodium chloride injection by intraperitoneal injection at 0.1 mL/10 g·bw.
The hydrochloride tablet control group was administrated by gavage a solution (prepared with 0.9% sodium chloride injection) at 2 mg/kg·bw.
Ginkgolide injection group, ginkgolide A group, ginkgolide B group, bilobalide group, ginkgolide B/bilobalide group, ginkgolide A/B/C group were administrated by intraperitoneal injection at 5 mg/kg·bw.
Ginkgo biloba leave extract injection solution control group was administered by intraperitoneal injection at 5 mg/kg·bw.
On the day before the rotating rod test, all mice were given rotating rod training, so that they were familiar with the relevant movements and were able to maintain balance by climbing continuously, without falling from the rotating rod at a low rotating speed (10 circles/min).
First, a rotating rod test was performed on all mice. The result was recorded as Pre-harmaline, used as the basic value of their exercise ability.
15 minutes after modeling, the time when it is observed that the mice given harmaline show obvious tremor, reduced activity and ataxia symptoms, was took as time 0. A rotating rod test was performed on all mice at time 0. Then the mice were administered immediately.
After time 0, a rotating rod test was performed on all mice at time 30 min (30 min), time 60 min (60 min), and time 90 min (90 min).
Rotary rod test method: the mice were placed on the Rota Rod Fatigue Tester, and adapted for 20 seconds. After the mice stood steady on the rod, the tester was started and the rod was accelerated at a constant rate according to the setting. Each mouse's residence time on the rod, from the beginning of the test to the time when falling off the rod, was recorded respectively. The Rota Rod Fatigue Tester supports up to 6 channels for simultaneous testing.
The rod is set to rotate at an initial speed of 5 circles/min (5 c/min) which is increased at a constant rate to a maximum speed of 30 circles/min (30c/min) during 120 seconds, and kept at the maximum speed for 60 seconds. Therefore, each test costs 180 seconds in total, and the mice that had not yet fallen off the rod at the end of 180 seconds was recorded as having a residence time of 180 seconds on the rod.
Exercise ability change curves of the mice in each group were drawn, and the area under the curve was calculated.
The experimental data were processed by using a SPSS 19.0 statistical software. The measurement data are expressed as mean±standard deviation (±SD). Data normality test was performed using the Kolmogorov-Smirnov method.

[2] = tested on: Patients with Essential Tremor; assay: Observation of dropping pills on patients with essential tremor (tremor score, adverse reactions); assay type: in vivo, human; conditions: Patient 2, general information before treatment
From the text: The following 6 items related to tremor are scored: 1) patient complaint; 2) upper limb tremor procedure; 3) head, jaw, tongue and lower limb tremor degree; 4) full water test; 5) dressing, eating, buttoning and chopstick using; and 6) drawing circles and straight lines. The score for each item is classified as: normal (scored 0 piont), mild (scored 1 point), moderate (scored 2 points) and severe (scored 3 points).
Ineffective: the difference in tremor score before and after the treatment is −1 to 1.
(§1) Deterioration: the difference in tremor score before and after the treatment is ≤−2.

[3] = tested on: Patients with Vascular Tremor; assay: Observation of dropping pills on patients with vascular tremor (tremor score, adverse reactions); assay type: in vivo, human; conditions: Patients 1, 2, 3, general information before treatment
From the text: Diagnosis criteria: A. Reduced movement, muscle rigidity, forward gait, broken steps and reciprocating; B. Positive signs of the nervous system; C. A history of hypertension and cerebral arteriosclerosis.
Exclusion criteria: Tremor paralysis caused by drugs and other diseases are excluded.
The following 6 items related to tremor are scored: 1) patient complaint; 2) upper limbs tremor procedure; 3) head, jaw, tongue and lower limbs tremor degree; 4) full water test; 5) dressing, eating, buttoning and chopsticks using; 6) drawing circles and straight lines. The score for each item is classified as: normal (scored 0 piont), mild (scored 1 point), moderate (scored 2 points) and severe (scored 3 points).
Ineffective: the difference in tremor score before and after the treatment is −1 to 1
as §1

Compound | Residence Time on Rod, Time 0 [1] [s] | Residence Time on Rod, 30 min [1] [s] | Residence Time on Rod, 60 min [1] [s] | Residence Time on Rod, 90 min [1] [s] | Ratio of area under the curve of each group to area under the curve of the model control group [1] | residence time on rod compared with model control group (in words) [1] | Residence Time on Rod, Pre-harmaline [1] [s] | recovery of exercise ability in the rotating rod test compared with model control (in words) [1] | effect in this patient (patient history) [2] | effect in this patient (patient history) [3]
CC(C)(C)[C@]1(O)CC2OC(=O)CC23C(=O)OC2OC(=O)[C@H](O)C231 (stereo partly shown) [Bilobalide, bilobalide] | 40.0 ± 15.6 | 48.2 ± 12.8 | 61.2 ± 15.2 | 90.6 ± 13.9 | 2.20 | significantly higher than that of the model control group | 171.6 ± 17.9 | significantly better than that of model control mice |  | 
C[C@@H]1C(=O)O[C@H]2C[C@@]34[C@H]5C[C@@H](C(C)(C)C)[C@]36[C@@H](OC(=O)[C@@H]6O)O[C@@]4(C(=O)O5)[C@]21O [Ginkgolide A, ginkgolide A] | 42.6 ± 10.8 | 50.8 ± 10.9 | 60.3 ± 13.1 | 91.4 ± 11.5 | 2.24 | significantly higher than that of the model control group | 170.6 ± 21.2 | significantly better than that of model control mice |  | 
CC1C(=O)OC2C(O)C34C5CC(C(C)(C)C)C36C(OC(=O)C6O)OC4(C(=O)O5)C12O (stereo not shown) [Ginkgolide B, ginkgolide B] | 43.9 ± 12.3 | 52.6 ± 9.8 | 65.8 ± 12.8 | 100.2 ± 14.2 | 2.39 | significantly higher than that of the model control group | 175.7 ± 18.3 | significantly better than that of model control mice |  | 
N[C@@H](Cc1ccc(O)c(O)c1)C(=O)O [Levodopa] |  |  |  |  |  |  |  |  | no effect | no effect
CC(C)NCC(O)COc1cccc2ccccc12 (stereo not shown) [Propranolol hydrochloride tablet, Propranolol hydrochloride, reference compound] | 41.6 ± 12.8 | 60.1 ± 12.8 | 77.6 ± 10.3 | 119.3 ± 13.0 | 2.74 | significantly higher than that of the model control group | 176.6 ± 12.9 | significantly better than that of model control mice |  | 

Source: US20210196675A1, “USE OF GINKGO BILOBA TERPENE LACTONE IN PREPARATION OF DRUGS FOR PREVENTION AND/OR TREATMENT OF TREMORS AND HEALTHCARE PRODUCTS” (CHENGDU BAIYU PHARMACEUTICAL CO., LTD., priority 2018, published 2021)
